Reference: PubChem BioAssay (NCI)
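Test compounds were applied to cells in 96-well plates for 48 hours at 5 doses. The concentration for 50% growth inhibition is given as GI50. TGI is the concentration that stops growth completely.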

Assays:
Experiment in all cases: DTP human tumour cell line panel, 48 h
HCT-116 colon = system: HCT-116 colon
IGROV1 ovarian = system: IGROV1 ovarian
KM12 colon = system: KM12 colon
OVCAR-4 ovarian = system: OVCAR-4 ovarian
SN12C renal = system: SN12C renal
SNB-75 CNS = system: SNB-75 CNS
UACC-257 melanoma = system: UACC-257 melanoma
OVCAR-8 ovarian = system: OVCAR-8 ovarian
DU-145 prostate = system: DU-145 prostate
T-47D breast = system: T-47D breast

Compound: Cc1c(C(=O)CSc2nc3ccccc3c(=O)n2-c2ccccc2)c(=O)n(-c2ccccc2)n1C
- TGI (HCT-116 colon): > 100 µM
- TGI (IGROV1 ovarian): > 100 µM
- TGI (KM12 colon): > 100 µM
- TGI (OVCAR-4 ovarian): > 100 µM
- TGI (SN12C renal): > 100 µM
- TGI (SNB-75 CNS): > 100 µM
- TGI (UACC-257 melanoma): > 100 µM

Compound: COCOc1ccc(Cn2c(=O)n(C)c(=O)c3c2ncn3C)cc1[N+](=O)[O-]
- TGI (HCT-116 colon): > 100 µM
- TGI (IGROV1 ovarian): > 100 µM
- TGI (KM12 colon): > 100 µM
- TGI (OVCAR-8 ovarian): > 100 µM
- TGI (SN12C renal): > 100 µM
- TGI (SNB-75 CNS): > 100 µM
- TGI (UACC-257 melanoma): > 100 µM

Compound: O=C(NC(Cc1ccc(I)cc1)C(=O)O)c1ccc(I)cc1 (stereo not drawn)
- TGI (HCT-116 colon): > 100 µM
- TGI (IGROV1 ovarian): > 47.6 µM
- TGI (KM12 colon): > 100 µM
- TGI (OVCAR-4 ovarian): > 100 µM
- TGI (OVCAR-8 ovarian): > 100 µM
- TGI (SN12C renal): > 100 µM
- TGI (SNB-75 CNS): > 100 µM
- TGI (UACC-257 melanoma): > 100 µM

Compound: COc1cc(C2CC(C)(Nc3ccccc3)Oc3cc4c(cc32)OCO4)cc(OC)c1OC (stereo not drawn)
- TGI (DU-145 prostate): 6.13 µM
- TGI (HCT-116 colon): > 51.2 µM
- TGI (IGROV1 ovarian): > 59.8 µM
- TGI (KM12 colon): > 37.5 µM
- TGI (OVCAR-4 ovarian): > 78.5 µM
- TGI (OVCAR-8 ovarian): > 100 µM
- TGI (SN12C renal): > 100 µM
- TGI (SNB-75 CNS): > 100 µM
- TGI (UACC-257 melanoma): > 85.2 µM

Compound: COc1cc([N+](=O)[O-])c(OC)cc1-c1nc2sc(Cl)cn2c1/C=N/Nc1ccccn1
- GI50 (IGROV1 ovarian): > 50 µM
- TGI (IGROV1 ovarian): > 50 µM
- GI50 (KM12 colon): > 50 µM
- TGI (KM12 colon): > 50 µM
- GI50 (OVCAR-8 ovarian): 17.3 µM
- TGI (OVCAR-8 ovarian): > 50 µM
- GI50 (SN12C renal): 8.53 µM
- TGI (SN12C renal): 36.8 µM
- GI50 (T-47D breast): 20.6 µM
- TGI (T-47D breast): > 50 µM
- GI50 (UACC-257 melanoma): > 50 µM
- TGI (UACC-257 melanoma): > 50 µM

Compound: CN(C)Cc1cc(C(=O)/C=C/c2ccc(O)cc2)cc(CN(C)C)c1O
- TGI (DU-145 prostate): > 100 µM
- TGI (HCT-116 colon): > 100 µM
- TGI (IGROV1 ovarian): > 100 µM
- TGI (KM12 colon): > 100 µM
- TGI (OVCAR-8 ovarian): > 100 µM
- TGI (SN12C renal): 60.1 µM
- TGI (SNB-75 CNS): 86.3 µM
- TGI (T-47D breast): > 100 µM
- TGI (UACC-257 melanoma): > 100 µM

Compound: CCN(CC)CCOc1ccc(N2C(=O)c3cc(OC)c(OC)cc3C2=O)cc1
- TGI (DU-145 prostate): > 100 µM
- TGI (HCT-116 colon): > 100 µM
- TGI (IGROV1 ovarian): > 100 µM
- TGI (KM12 colon): > 100 µM
- TGI (OVCAR-4 ovarian): > 100 µM
- TGI (OVCAR-8 ovarian): > 100 µM
- TGI (SN12C renal): > 100 µM
- TGI (T-47D breast): > 100 µM
- TGI (UACC-257 melanoma): > 100 µM

Compound: Clc1ccc(-c2nn3c(-c4ccncc4)nnc3s2)cc1
- TGI (DU-145 prostate): > 100 µM
- TGI (HCT-116 colon): > 100 µM
- TGI (IGROV1 ovarian): > 100 µM
- TGI (KM12 colon): > 100 µM
- TGI (OVCAR-4 ovarian): > 100 µM
- TGI (OVCAR-8 ovarian): > 100 µM
- TGI (SN12C renal): > 100 µM
- TGI (T-47D breast): > 100 µM
- TGI (UACC-257 melanoma): > 100 µM

Compound: CC(=O)OCC1OC(n2cc([N+](=O)[O-])c(=O)[nH]c2=O)C(OC(C)=O)C(OC(C)=O)C1OC(C)=O (stereo not drawn)
- TGI (HCT-116 colon): > 100 µM
- TGI (IGROV1 ovarian): > 100 µM
- TGI (KM12 colon): > 100 µM
- TGI (OVCAR-4 ovarian): > 100 µM
- TGI (OVCAR-8 ovarian): > 100 µM
- TGI (SN12C renal): > 100 µM
- TGI (SNB-75 CNS): > 100 µM
- TGI (UACC-257 melanoma): > 100 µM

Compound: CC(C(=O)n1nnc2ccccc21)N(c1ccccc1)c1ccccc1 (stereo not drawn)
- TGI (HCT-116 colon): > 100 µM
- TGI (IGROV1 ovarian): > 100 µM
- TGI (OVCAR-8 ovarian): > 100 µM
- TGI (SN12C renal): > 100 µM
- TGI (SNB-75 CNS): > 100 µM
- TGI (UACC-257 melanoma): > 100 µM

Compound: O=S(=O)(O)c1cc2ccc1/C=C\c1ccc(cc1S(=O)(=O)O)N=Nc1ccc(c(S(=O)(=O)O)c1)/C=C\c1ccc(cc1S(=O)(=O)O)N=N2
- TGI (HCT-116 colon): > 100 µM
- TGI (IGROV1 ovarian): > 100 µM
- TGI (KM12 colon): > 100 µM
- TGI (OVCAR-4 ovarian): > 100 µM
- TGI (OVCAR-8 ovarian): > 100 µM
- TGI (SN12C renal): > 100 µM
- TGI (SNB-75 CNS): > 100 µM
- TGI (UACC-257 melanoma): > 100 µM

Compound: C=C[C@@H]1C(CO)=CCC2[C@H]1CCC1C(C)(C)C(=O)CC[C@]21C (stereo partly drawn)
- TGI (DU-145 prostate): > 100 µM
- TGI (HCT-116 colon): > 100 µM
- TGI (IGROV1 ovarian): > 100 µM
- TGI (KM12 colon): > 100 µM
- TGI (OVCAR-4 ovarian): > 100 µM
- TGI (SN12C renal): > 100 µM
- TGI (T-47D breast): > 100 µM
- TGI (UACC-257 melanoma): > 100 µM

Compound: COc1ccc(CC(O)CN2CCOCC2)cc1 (stereo not drawn)
- TGI (DU-145 prostate): > 100 µM
- TGI (HCT-116 colon): > 100 µM
- TGI (IGROV1 ovarian): > 100 µM
- TGI (KM12 colon): > 100 µM
- TGI (OVCAR-4 ovarian): > 100 µM
- TGI (OVCAR-8 ovarian): > 100 µM
- TGI (SN12C renal): > 100 µM
- TGI (T-47D breast): > 100 µM
- TGI (UACC-257 melanoma): > 100 µM

Compound: O=C1CN2C(c3ccccc3)=NN(c3ccc([N+](=O)[O-])cc3)C2(c2ccccc2)c2cc(Cl)ccc2N1CC1CC1 (stereo not drawn)
- TGI (DU-145 prostate): > 100 µM
- TGI (HCT-116 colon): > 100 µM
- TGI (IGROV1 ovarian): > 100 µM
- TGI (KM12 colon): > 100 µM
- TGI (OVCAR-4 ovarian): > 100 µM
- TGI (OVCAR-8 ovarian): > 100 µM
- TGI (SN12C renal): > 100 µM
- TGI (SNB-75 CNS): > 100 µM
- TGI (UACC-257 melanoma): > 100 µM

Compound: Cc1cn(C2OC(C)(CO)C(O)C2O)c(=O)[nH]c1=O (stereo not drawn)
- TGI (HCT-116 colon): > 100 µM
- TGI (IGROV1 ovarian): > 100 µM
- TGI (KM12 colon): > 100 µM
- TGI (OVCAR-4 ovarian): > 100 µM
- TGI (OVCAR-8 ovarian): > 100 µM
- TGI (SN12C renal): > 100 µM
- TGI (SNB-75 CNS): > 100 µM

Compound: C=CCOC(=O)CC[N+]1=CCC(c2ccccc2)(c2ccccc2)O1
- TGI (DU-145 prostate): > 100 µM
- TGI (HCT-116 colon): > 100 µM
- TGI (IGROV1 ovarian): > 100 µM
- TGI (KM12 colon): > 100 µM
- TGI (OVCAR-4 ovarian): > 100 µM
- TGI (OVCAR-8 ovarian): > 100 µM
- TGI (SN12C renal): > 100 µM
- TGI (T-47D breast): > 100 µM
- TGI (UACC-257 melanoma): > 100 µM

Compound: O=C(NCCN1CCOCC1)c1ccc2cc(C(=O)N3CC(CCl)c4ccc([N+](=O)[O-])cc43)[nH]c2c1 (stereo not drawn)
- TGI (DU-145 prostate): 49.3 µM
- TGI (HCT-116 colon): > 100 µM
- TGI (IGROV1 ovarian): > 100 µM
- TGI (KM12 colon): > 100 µM
- TGI (OVCAR-4 ovarian): 32.6 µM
- TGI (OVCAR-8 ovarian): 35.4 µM
- TGI (SN12C renal): 52.7 µM
- TGI (T-47D breast): > 100 µM
- TGI (UACC-257 melanoma): 86.8 µM
